Molecules are shown by their SMILES.

The test system of the assay is SK-MEL-28 cells (B-RAF V600E mutated). Put plainly: Inhibition of the proliferation of cultivated human melanoma cells (SK-MEL-28), AlamarBlue. Format: cell-based. The settings on record: 72 h incubation. The procedure: Measurement of the Inhibition of the Proliferation of Cultivated Human Melanoma Cells (SK-MEL-28, B-RAF^[…] Mutated)
For measuring the proliferation of cultivated human tumour cells, cells of the melanoma cell line SK-MEL-28 [from American Type Culture Collection (ATCC)] are cultivated in MEM medium, supplemented with 10% foetal calf serum, 2% sodium bicarbonate, 1 mM sodium pyruvate, 1% non-essential amino acids (e.g. from Cambrex, # BE13-114E) and 2 mM glutamine. SK-MEL-28 cells are placed in 96-well flat bottomed dishes in a density of 2500 cells per well in supplemented MEM medium (see above) and incubated overnight in an incubator (at 37° C. and 5% CO2). The active substances are added to the cells in different concentrations, so that a concentration range of 50 μM to 3.2 nM is covered. If necessary the initial concentration of 50 μM is changed to 10 μM or 2 μM and further dilution is carried out accordingly (up to 0.6 nM or 0.12 nM). After an incubation period of a further 72 h 20 μL AlamarBlue reagent (Serotec Ltd., # BUF012B) are added to each well and the cells are incubated for a further 3-6 h. The colour change of the AlamarBlue reagent is determined in a fluorescence spectrophotometer (e.g. Gemini, Molecular Devices). EC50 values are calculated using a software program (GraphPadPrizm).
A word on the EC50: it is the concentration at which the effect is half-maximal. The low end stands for greater potency, the high end for weaker potency. In turn, `CCCS(=O)(=O)Nc1ccc(F)c(-n2cc(-c3cncc(OCC)c3)nn2)c1F` [Example I-35] gave an EC50 of 358 nM. Compound `CC(C)(C)N1CCN(c2cncc(-c3cn(-c4c(F)ccc(NS(=O)(=O)c5ccoc5)c4Cl)nn3)c2)CC1` [Example I-69] gave an EC50 of 5 nM. Compound `COc1cncc(-c2cn(-c3c(F)ccc(NS(=O)(=O)C(C)C)c3F)nn2)c1` [Example I-19] registered an EC50 of 493 nM. As for `CCCCS(=O)(=O)Nc1ccc(F)c(-n2cc(-c3cncc(OC)c3)nn2)c1F` [Example I-43], the figure is 432 nM; as for `CCCS(=O)(=O)Nc1ccc(F)c(-n2cc(-c3cncc(N4CCN(C(C)(C)C)CC4)c3)nn2)c1F` [Example I-9], 132 nM. `CCCS(=O)(=O)Nc1ccc(F)c(-n2cc(-c3ccc(NC(C)=O)nc3)nn2)c1F` [Example I-6] registered an EC50 of 559 nM. As for `COc1cncc(-c2cn(-c3c(F)ccc(NS(=O)(=O)CC(C)C)c3F)nn2)c1` [Example I-25], the EC50 came to 158 nM. On to `CCCS(=O)(=O)Nc1ccc(F)c(-n2cc(-c3cnc(NC4CCN(CCOC)CC4)nc3)nn2)c1F` [Example I-13], for which the half-maximal effective concentration (EC50) came out at 1020 nM. Compound `CC(C)CS(=O)(=O)Nc1ccc(F)c(-n2cc(-c3cncc(N4CCN(C5CC5)CC4)c3)nn2)c1F` [Example I-29] registered an EC50 of 37 nM. In the case of `CCCS(=O)(=O)Nc1ccc(F)c(-n2cc(-c3cncc(OC4CCOCC4)c3)nn2)c1F` [Example I-33], it took 671 nM to reach a half-maximal effect (EC50). `CCCS(=O)(=O)Nc1ccc(F)c(-n2cc(-c3cncc(N4CCN(C(C)(C)C)CC4)c3)nn2)c1Cl` [Example I-76]: the EC50 amounted to 65 nM.

The values are drawn from patent US8710055B2, “Triazolylphenyl sulfonamides as serine/threonine kinase inhibitors” (Boehringer Ingelheim International GmbH, priority 2010, dated 2014).
